Patent publication US7528169B2, “Substance having antitumor/anti-inflammatory activity” (Riken, priority 2001, dated 2009)

What was measured:
[1] = system: MCF-7 cells derived from human mammary cancer; experiment: Inhibitory effect on proliferation of tumor cells (MTT survival rate) under 1% or 20% oxygen; type: cell-based; conditions: 10 to 100 μg/ml, 48 hours, 1% oxygen vs 20% oxygen
Protocol: MCF-7 cells derived from human mammary cancer were cultured in a RPMI medium (containing 5% bovine fetal serum). The cells were added with RKB-3564S and RKB-3564SAC in a series of dilution, cultured under the condition of 1% oxygen concentration or 20% oxygen concentration for 48 hours, then added with MTT reagent [3-(4,5-dimethyl-thiazol-2-yl)-2,5-diphenyltetrazolium bromide], and further cultured for 2 to 4 hours, and then the absorption at 570 nm was measured to calculate the survival rate.

NF-κB = experiment: Inhibitory effect on NF-κB activation by TPA (luciferase reporter, pGL3-NF1, in COS-7 cells); type: cell-based; conditions: TPA 50 ng/ml, 10 to 100 μg/ml, 24 hours
Protocol: COS-7 cells maintained in a DMEM medium (containing 5% bovine fetal serum) were transfected with a plasmid (pGL3-NF1) containing 5xNF-κB binding sequence (5′-[…]-3′) (SEQ ID NO: 1) located upstream of the luciferase gene. The cells were added with TPA (50 ng/ml) and RKB-3564S and RKB-3564SAC in a series of dilution, and cultured for 24 hours, and then the activity of produced luciferase was measured to calculate the inhibitory effect on NF-κB activation by TPA.

[2] = Solubility (physico-chemical properties); type: physicochemical
Protocol: The physico-chemical properties of […] are shown below. • Appearance: colorless powdery crystals • Melting point: 71.5-72° C. (dec.) • Molecular formula: C10H12O2 • High-resolution mass spectrum (HR-RABMS): (M+H)^+Found (m/z): 165.0868 Calcd. […] Insoluble in n-hexane.

Solubility in methanol or dimethyl sulfoxide ([2]; methanol or dimethyl sulfoxide)	Solubility in n-hexane ([2]; n-hexane)	SMILES	inhibition of cell proliferation under 1% oxygen compared to 20% oxygen [1]	inhibition of transcription activation by NF-κB (NF-κB)
–	–	C/C=C/c1cccc(OC(C)=O)c1COC(C)=O [RKB-3564SAC]	significantly inhibited cell proliferation	inhibited transcription activation by NF-κB
easily soluble	Insoluble	C/C=C/c1cccc(O)c1CO [RKB-3564S]	significantly inhibited cell proliferation	inhibited transcription activation by NF-κB
